According to patent publication US9632034B2, “Fluorogenic and chromogenic substrate” (LI-COR, Inc., priority 2015, dated 2017):

Columns and labels:
[1] = molecular target: T1, HRP-azine system (Armoracia rusticana, UniProt P00433); assay: Optimisation of formulation components (radical enhancer, nucleophilic reagent, oxidant) on western blot; type: biochemical; details: for effect of oxidant on azine oxidization and formation of colored and fluorescent compounds: at certain concentrations, HRP-azine system; for preferred concentration in working solution: by rate of visualization and/or number of colored bands on western blot, PTAS tested 2 to 30 mM, MORP 0 to 20 mM
T1 sequence (P00433 31-338): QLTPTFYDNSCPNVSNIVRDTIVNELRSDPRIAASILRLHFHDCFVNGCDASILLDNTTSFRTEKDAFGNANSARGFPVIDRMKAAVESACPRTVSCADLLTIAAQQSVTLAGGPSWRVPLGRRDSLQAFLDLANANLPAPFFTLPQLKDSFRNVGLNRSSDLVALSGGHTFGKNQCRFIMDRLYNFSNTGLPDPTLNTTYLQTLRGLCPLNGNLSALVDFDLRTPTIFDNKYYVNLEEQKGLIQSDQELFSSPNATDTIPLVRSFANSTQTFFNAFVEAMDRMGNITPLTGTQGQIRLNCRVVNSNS
Experimental: The optimal concentrations of the cation radical enhancer, nucleophilic reagent, solvent system and oxidant in the formulation were also tested. Water soluble azine, particularly 3-(10′-phenothiazinyl)propane-1-sulfonate (PTAS) was tested at various concentrations from 2 to 30 mM in a working solution. The effects were evaluated using the rate (speed) of visualization and the number of colored band on western blot. The preferred concentration of PTAS was 18 mM. Other water soluble and N-substituted PTA derivatives can also be used in place of PTAS or in combination thereof. The nucleophilic reagent serves as a co-substrate in the detection solution. The nucleophilic reagent can include five or six membered nitrogen heteroaromatic ring compounds. MORP at concentrations from 0 to 20 mM was tested in the formulation. Based on the number of colored bands detected, the preferred concentration was 15 mM MORP in the working solution.
Stable oxidants that are compatible with HRP-azine system are tested. Sodium perborate (NaBO3), Urea-H2O2 and stabilized H2O2 at certain concentrations accelerated azine oxidization and formation of colored and fluorescent compounds.

[2] = molecular target: T2, HRP-conjugated secondary antibody (Erk protein in C32 cell lysates) (Armoracia rusticana, UniProt P00433); assay: Western blot of Erk protein in C32 cell lysates, near-infrared chemifluorescence detection against chemiluminescent substrate; type: biochemical
T2 sequence (P00433 31-338): T1 sequence (P00433 31-338)
Experimental: A series of tests were performed to determine the optimal concentration of PTA in the detection method. Western blot analysis was performed on cell lysates generated from the C32 cell line that expresses high levels of Erk protein. The lysates were processed according to standard western blotting protocols. Briefly, Erk protein was detected using a primary antibody against Erk (an anti-Erk monoclonal antibody) and an HRP-conjugated secondary antibody (goat anti-mouse IgG antibody). Different concentrations of the PTA substrate were compared by visualization of color formation and detection of protein bands. The limit of detection (LOD) was measured by chemifluorescence signal and compared to the LOD using Thermo Scientific™ SuperSignal™ West Femto Substrate. […] FIG. 5 illustrates the comparison and effect of PTA concentration on LOD of Erk protein in C32 cell lysates.
The exemplary formulation of the detection solution tested comprises two concentrated solutions: Solution A (a first part) and Solution B (a second part). […]
In this experiment Erk protein was detected in C32 cell lysates using a 1:1000 dilution of a monoclonal antibody directed to Erk. […] Near-infrared fluorescence from PTA treated blot was detected using the Odyssey® CLx system set at the 700 channel. Chemiluminescence from the control blot was detected using the Odyssey® Fc imaging system set at the chemiluminescence channel.

[3] = PTA solubility in water and in assay buffer with solubilizers (precipitate visualization, HPLC); type: physicochemical; details: for Appearance of solution: PTA in assay buffer (Tris buffer, pH 9.5) with the named solubilizer at the w/v concentration printed in the table; for Appearance of PTA solution after overnight storage at room temperature: PTA in assay buffer (Tris buffer, pH 9.5) with the named solubilizer
Experimental: Next, the solvent system for phenothiazine (PTA) was tested. […] The solubility of PTA with polymers was tested by precipitate visualization and by HPLC of fresh and stored samples. Table 1 provides a comparison of polymers that include PTA solubility in an assay buffer, such as Tris buffer, pH 9.5.

With `OO` [stabilized H2O2, hydrogen peroxide] the “effect of oxidant on azine oxidization and formation of colored and fluorescent compounds” value (“effect of oxidant” below) [1] was “accelerated”.

For Sodium perborate, the “effect of oxidant” value [1] was “accelerated”.

For `c1cc(N2CCOCC2)ccn1` [MORP, 4-morpholinopyridine], the “preferred concentration in working solution” value [1] was 15 mM.

With `CN(C)c1ccc2c(c1)Sc1cc(N(C)C)ccc1N2C(=O)c1ccccc1` [BLMB] the “enhancement in sensitivity compared to SuperSignal West Femto Chemiluminescence Substrate” value ([2]; BLMB formulation with dextran sulfate, DMAP, HNA, citric buffer, NaBO3, final pH 5.0) was 2˜4 fold.

In the case of `c1ccc2c(c1)Nc1ccccc1S2` [PTA, 10H-phenothiazine], the Appearance of solution [3] is reported as “cloudy”, the “Appearance of PTA solution after overnight storage at room temperature” value [3] is reported as “Precipitate,” and the “PTA concentration given with appearance of PTA solution after overnight storage at room temperature” value ([3]; assay buffer, no solubilizer added) is reported as 0.15 µM. The “PTA concentration with the highest sensitivity in working solution” value ([2]; LOD of Erk protein by chemifluorescence at 700 nm, 0.65, 0.35, 0.15 mM PTA compared) was 0.35 mM.

For `OCCO` [Ethylene Glycol (EG), Ethylene Glycol], the Appearance of solution [3] was “cloudy”, the “Appearance of PTA solution after overnight storage at room temperature” value [3] was “Precipitation,” and the “PTA concentration given with appearance of PTA solution after overnight storage at room temperature” value ([3]; PTA in assay buffer with the named solubilizer) was 500 µM.

With `NC(N)=O.OO` [Urea-H2O2, urea-hydrogen peroxide] the “effect of oxidant” value [1] was “accelerated”.

In the case of `O=S(=O)([O-])CCCN1c2ccccc2Sc2ccccc21.[Na+]` [PTAS, sodium 3-(phenothiazine-10-yl)propane-1-sulfonate], the “preferred concentration in working solution” value [1] is reported as 18 mM.
